# Read-outs that look alike come from different tables or passages of the source.
# Assays:
# [1] = target: TAM-mutant HIV-1 reverse transcriptase (UniProt P04585); type: biochemical; design: other: preferred BPH variants; conditions: read-out: Estimated IC50; preferred BPH variants; quantity inhibited not given
# Protocol: (§1) An 18 nucleotide DNA oligonucleotide (“primer DNA”) of sequence 5′-[…]-3′ was 5′ end labeled using [y^32p]-ATP and T4 polynucleotide kinase. The labeled primer DNA was purified by polyacrylamide gel electrophoresis, and then annealed to a synthetic DNA oligonucleotide (“template DNA”) of the sequence 5′-[…] […]-3′, to form “template/primer DNA”. Template/primer DNA was then chain-terminated with AZTMP by incubating for 30 minutes at 37° C. with HIV-1 reverse transcriptase in 50 mM Tris-HCl, pH 7.8, containing 60 mM KCl, 10 mM MgCl2, and 100 μM AZTTP. The total incubation sample was then dried under reduced pressure and the [^32P]-labeled, 3′-AZTMP-terminated primer DNA (now 19 nucleotides in length) was purified by polyacrylamide gel electrophoresis. The purified [^32P]-labeled, 3′-AZTMP-terminated primer DNA was annealed to template DNA to form the nucleic acid excision substrate (termed “AZTMP-T/P”).
# (§2) At various times thereafter, aliquots were removed and quenched by dilution into sequencing gel loading buffer (98% deionized formamide, 10 mM EDTA, and 1 mg/mL each of bromophenol blue and xylene cyanol). Samples were heated at 100° C. for 5 minutes then subjected to polyacylamide gel electrophoresis using 16% polyacrylamide/7 M urea gels. Electrophoretically resolved products were visualized and quantified by phosphorimaging analysis.
# (§3) The [^32P]-labeled, 3′-AZTMP-terminated nucleic acid excision substrate (“AZTMP-T/P”) is made as described in Example 2. […] After 10 minutes (for reactions with ATP) or 5 minutes (for reactions with sodium pyrophosphate), the reactions are stopped by the addition of 2 volumes of sequencing gel loading buffer (98% deionized formamide, 10 mM EDTA, and 1 mg/ml each of bromophenol blue and xylene cyanol). An identical control reaction in which RT is omitted is also carried out simultaneously. Samples are heated at 100° C. for 5 minutes then subjected to polyacylamide gel electrophoresis using 16% polyacrylamide/7 M urea gels. Electrophoretically resolved products are visualized and quantified by phosphorimaging analysis. The percent excision is defined by the amount of the 19 nucleotide [^32P]-labeled, 3′-AZTMP-terminated primer DNA in the sample divided by the amount of the 19 nucleotide [^32P]-labeled, 3′-AZTMP-terminated primer DNA in the control, multiplied by 100.
# [2] = target: TAM-mutant HIV-1 reverse transcriptase (UniProt P04585); type: biochemical; design: AZT-terminated DNA that had undergone excision; other: 20 micromolar 218A, 3 mM ATP, after 10 minutes; 65% without bisp; other: 5 micromolar bisphosphonate, 3 mM ATP, after 10 min; 65% without; conditions: for % Inhibition of AZT excision: BPH concentration not given
# Protocol: as §1, §2, §3
# wild type HIV-1 = assay: Antiviral activity against wild type HIV-1 in P4/R5 cells; type: cell-based; conditions: Human immunodeficiency virus 1, compound alone, read-out: EC50 against replication
# AZT-resistant HIV-1 = assay: Antiviral activity against AZT-resistant HIV-1 in P4/R5 cells; type: cell-based
# Protocol: P4/R5 cells are plated in 96-well culture dishes at a cell density of 3×10^3 cells/well in 100 μl DMEM/10% fetal bovine serum. In one set of plates, bisphosphonate variants are added (25μM final concentration in FIG. 6) to individual wells. In another identical set of plates, bisphosphonate variants are added along with specific concentrations of AZT (0.1 μM final concentration in FIG. 6). Each well is inoculated with AZT-resistant HIV (multiplicity of infection=1), and the cells are incubated at 37° C. for 48 hours. The cells are then washed and the extent of HIV infection is determined fluorometrically. The percent inhibition of HIV replication is calculated as [1-(fluorescence signal of cells infected in the presence of bisphosphonate divided by the fluorescence signal of cells infected in the absence of any drug)] multiplied by 100.
Structure (SMILES),IC50 [1] [µM],other results
O=P(O)(O)C(O)(Cc1cccc(C(F)(F)F)c1)P(=O)(O)O [Compound 250A],2.9,% Inhibition of AZT excision [2]: 68%
O=P(O)(O)C(Nc1ccc(Cl)cc1Cl)P(=O)(O)O [Compound 244A],8,
O=P(O)(O)C(CNc1ccc(-c2ccccc2)cc1)P(=O)(O)O [Compound 331A],4.6,
"Cc1cn([C@H]2C[C@H](N=[N+]=[N-])[C@@H](CO)O2)c(=O)[nH]c1=O [AZT, 3′-azido-3′-deoxythymidine]",,"EC50 (wild type HIV-1): ~0.14 µM; EC50 (AZT-resistant HIV-1; Human immunodeficiency virus 1, P4/R5, read-out: EC50 of AZT in the presence of 218A): > 0.025 µM; inhibition at 0.1 µM (AZT-resistant HIV-1; Human immunodeficiency virus 1, P4/R5, 0.1 μM final concentration, alone, 48 hours, FIG. 6, read-out: percent inhibition of HIV replication): 2%; EC50 (AZT-resistant HIV-1; Human immunodeficiency virus 1, compound alone, P4/R5 cells, read-out: EC50 against replication): ~1.2 µM"
O=P(O)(O)C(O)(Cc1cccc2ccccc12)P(=O)(O)O [Compound 257A],1.35,
O=P(O)(O)C(O)(Cc1cccc(-c2cc(F)ccc2F)c1)P(=O)(O)O [Compound 334A],1.5,
O=P(O)(O)C(Nc1cccc(-c2ccc(F)c(F)c2)c1)P(=O)(O)O [Compound 327A],2.1,
O=P(O)(O)C(O)(CC12CC3CC(CC(C3)C1)C2)P(=O)(O)O [Compound 329A],4.6,
O=P(O)(O)C(Nc1ccc2c(c1)CCC2)P(=O)(O)O [Compound 215A],4.5,% Inhibition of AZT excision [2]: 75%
O=P(O)(O)C(O)(Cc1ccc(Cl)c(Cl)c1)P(=O)(O)O [Compound 342A],0.4,
CC(C)c1cccc(NC(P(=O)(O)O)P(=O)(O)O)c1 [Compound 248A],3.7,% Inhibition of AZT excision [2]: 59%
O=P(O)(O)C(O)(Cc1cccc(I)c1)P(=O)(O)O [Compound 279A],1.1,
O=P(O)(O)C(O)(Cc1cccc(Br)c1)P(=O)(O)O [Compound 255A],1.8,% Inhibition of AZT excision [2]: 76%
"O=C(O)P(=O)(O)O [Foscarnet, phosphonoformic acid, reference compound]",,"concentration dependence of inhibition of ATP-mediated excision of AZT ([2]; increasing concentration, FIG. 3): did not inhibit ATP-mediated excision of AZT as well as 218A"
O=P(O)(O)C(Nc1cccc(CO)c1)P(=O)(O)O [Compound 280A],7.9,
O=[N+]([O-])c1cccc(NC(P(=O)(O)O)P(=O)(O)O)c1 [Compound 304A],2.7,
O=P(O)(O)C(O)(Cc1cccc(I)c1)P(=O)(O)O [Compound 251A],3.4,
O=P(O)(O)C(O)(Cc1cccc(-c2ccc(Cl)cc2)c1)P(=O)(O)O [Compound 314A],0.9,
COc1ccc(-c2cccc(CC(O)(P(=O)(O)O)P(=O)(O)O)c2)cc1 [Compound 315A],2.4,
O=P(O)(O)C(O)(Cc1ccc(-c2ccc(F)cc2)cc1)P(=O)(O)O [Compound 325A],2.9,
COCc1cccc(NC(P(=O)(O)O)P(=O)(O)O)c1 [Compound 281A],9.5,

Structure (SMILES),IC50 [1] [µM],other results
COc1ccc(-c2ccc(CC(O)(P(=O)(O)O)P(=O)(O)O)cc2)cc1 [Compound 333A],5.2,
O=P(O)(O)C(O)(Cc1cccc(Oc2ccccc2)c1)P(=O)(O)O [Compound 339A],3.3,
O=P(O)(O)C(Nc1cccc(Br)c1)P(=O)(O)O [Compound 302A],1,
O=[N+]([O-])c1cccc(CC(O)(P(=O)(O)O)P(=O)(O)O)c1 [Compound 256A],2.5,% Inhibition of AZT excision [2]: 66%
O=P(O)(O)C(Nc1cccc(-c2cc(F)cc(F)c2)c1)P(=O)(O)O [Compound 317A],2.1,
CN(C)Cc1cccc(CC(O)(P(=O)(O)O)P(=O)(O)O)c1 [Compound 289A],8.3,
CCn1c2ccccc2c2cc(NC(P(=O)(O)O)P(=O)(O)O)ccc21 [Compound 228A],4.1,% Inhibition of AZT excision [2]: 60%
O=P(O)(O)C(O)(Cc1cccc(Cl)c1)P(=O)(O)O [Compound 253A],3.1,% Inhibition of AZT excision [2]: 70%
O=P(O)(O)C(Nc1cccc(-c2ccc(F)cc2F)c1)P(=O)(O)O [Compound 316A],3.9,
O=P(O)(O)C(CNc1cccc(-c2ccccc2)c1)P(=O)(O)O [Compound 312A],11.3,
CC(C)CCNCC(P(=O)(O)O)P(=O)(O)O [Compound 311A],15.5,
COc1cccc(CC(O)(P(=O)(O)O)P(=O)(O)O)c1 [Compound 341A],5.4,
O=P(O)(O)C(O)(Cc1cccc(-c2ccc(F)c(F)c2)c1)P(=O)(O)O [Compound 336A],1,
O=P(O)(O)C(Nc1ccc(Cc2ccccc2)cc1)P(=O)(O)O [Compound 332A],3.5,
O=P(O)(O)C(Cn1cnc2ccccc21)P(=O)(O)O [Compound 298A],13.5,
O=P(O)(O)C(O)(Cc1cccc(-c2ccc(F)cc2)c1)P(=O)(O)O [Compound 313A],1.9,
O=P(O)(O)C(O)(Cc1ccc(-c2ccc(Cl)cc2)cc1)P(=O)(O)O [Compound 326A],3.9,
Cc1ccc(NC(P(=O)(O)O)P(=O)(O)O)cc1-c1ccccc1 [Compound 340A],5,
O=P(O)(O)C(Nc1ccc(Br)cn1)P(=O)(O)O [Compound 48B],3.4,
O=P(O)(O)C(Nc1cccc(Cc2ccccc2)c1)P(=O)(O)O [Compound 262A],4.2,% Inhibition of AZT excision [2]: 66%

# From patent US20050113331A1, “Compositions and methods for use of antiviral drugs in the treatment of retroviral diseases resistant to nucleoside reverse transcriptase inhibitors” (priority 2003, published 2005)
